biological target: Phospholipid transfer protein (Homo sapiens) (UniProt P55058); assay: Inhibition of PLTP in plasma (unknown origin) at 150 uM using liver phospholipid, phospholipids liposome and HDL and TSE incubated for 1 hr relative to control
Sequence (P55058 whole entry): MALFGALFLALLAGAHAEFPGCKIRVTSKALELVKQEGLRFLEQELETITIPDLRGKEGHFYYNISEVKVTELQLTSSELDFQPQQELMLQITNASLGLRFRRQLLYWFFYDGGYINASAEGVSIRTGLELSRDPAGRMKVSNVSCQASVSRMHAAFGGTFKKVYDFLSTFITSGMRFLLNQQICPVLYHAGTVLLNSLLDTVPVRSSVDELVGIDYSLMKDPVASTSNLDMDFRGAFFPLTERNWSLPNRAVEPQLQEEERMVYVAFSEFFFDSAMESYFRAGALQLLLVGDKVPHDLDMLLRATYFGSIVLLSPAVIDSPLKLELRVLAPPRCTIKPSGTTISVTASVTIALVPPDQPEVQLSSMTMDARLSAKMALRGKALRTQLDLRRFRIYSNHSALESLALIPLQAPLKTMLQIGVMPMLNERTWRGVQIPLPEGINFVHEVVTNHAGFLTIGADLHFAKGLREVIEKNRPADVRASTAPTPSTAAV

| inhibition [%] | Compound |
| --- | --- |
| 0 | COc1ccc(-c2nc(N)sc2CC2CCCCC2)cc1 |
| 0 | COc1ccc(C(=O)Nc2nc(-c3ccc(O)cc3)c(Cc3ccccc3)s2)cc1 |
| 0 | O=C(Nc1nc(-c2ccc(O)cc2)c(Cc2ccccc2)s1)c1ccc(Cl)cc1 |

— ChEMBL document CHEMBL4418478, “2,4,5-trisubstituted thiazole compounds,preparation methods,pharmaceutical compositions and medical uses thereof” (2016)
